Peptide text beside a SMILES is read from it.
Assays:
[1] = target: T1, 2xSUMO2ΔN11 (di-SUMO2) (Homo sapiens, UniProt P61956); test: ITC binding to linear di-SUMO2 (2xSUMO2ΔN11); conditions: linear di-SUMO2
T1 construct: Each monomer in these chains is separated by RS replacing the natural GG motif; a C-terminal GG motif and a stop codon; GST (N, cleaved yes); made in house; host or cells: E. coli Rosetta 2(DE3)pLysS
Source text: (§1) For expression in Escherichia coli, linear poly-SUMO chains were generated as described previously with slight modifications. After the combined PCR/ligation reaction, the 4×SUMO2-ΔN11 or 4×SUMO1-ΔN15 DNA polymers were separated from smaller polymers by agarose gel electrophoresis and individually extracted (Macherey–Nagel). These were then subjected to a second PCR with primers to create BamHI and XhoI restriction sites, a C-terminal GG motif and a stop codon. The resulting fragments coding for di-, tri- and tetra-SUMO2-ΔN11 or SUMO1-ΔN15 chains were amplified and cloned into pGEX-4T2. […] Each monomer in these chains is separated by RS replacing the natural GG motif. A similar strategy was used to design C-terminally GFP–HA2-tagged linear poly-SUMOs in the copper-inducible Ycplac22 vector for expression in S. cerevisiae. […]
(§2) The mono-SUMOs and linear poly-SUMO1 and poly-SUMO2 proteins as well as all RNF4 constructs were expressed as GST-fusion proteins from E. coli Rosetta™ 2(DE3)pLysS cells (Novagen) cultivated in LB medium with 100 μg/ml ampicillin and 30 μg/ml chloramphenicol after induction with 0.1 mM IPTG at 20°C for 12 h. […]
(§3) Binding of peptides and proteins to SUMOs was investigated by ITC using either a VP-ITC or an ITC200 (GE Healthcare). […] Protein concentrations were determined by measuring the absorption at 280 nm. […]

[2] = target: T2, 1xSUMO2ΔN11 (mono-SUMO2) (Homo sapiens, UniProt P61956); test: ITC binding to mono-SUMO2 (1xSUMO2ΔN11)
T2 construct: a C-terminal GG motif and a stop codon; GST (N, cleaved yes); made in house; host or cells: E. coli Rosetta 2(DE3)pLysS
T2 sequence (P61956 12-93 limits assumed, stated change not applied): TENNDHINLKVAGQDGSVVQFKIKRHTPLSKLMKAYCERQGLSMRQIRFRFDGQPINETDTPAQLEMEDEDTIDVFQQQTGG
Source text: as §1, §2, §3

T1 sequence (P61956 with tags, fused parts or gaps): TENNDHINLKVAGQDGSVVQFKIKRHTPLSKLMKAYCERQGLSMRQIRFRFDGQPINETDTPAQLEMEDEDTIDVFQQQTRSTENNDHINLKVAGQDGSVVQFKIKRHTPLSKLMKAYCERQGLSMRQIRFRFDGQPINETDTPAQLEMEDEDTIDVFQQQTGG

Structure (SMILES)	affinity for di-SUMO2 [1]	affinity for mono-SUMO2 [2]
CC[C@H](C)[C@H](NC(=O)[C@H](CCC(=O)O)NC(=O)[C@H](CC(=O)O)NC(=O)CN)C(=O)N[C@H](C(=O)N[C@@H](CC(=O)O)C(=O)N[C@@H](CC(C)C)C(=O)N[C@H](C(=O)N[C@@H](CS)C(=O)N[C@@H](CCC(=O)O)C(=O)N[C@@H](CO)C(=O)N[C@@H](CC(C)C)C(=O)N[C@@H](CCC(=O)O)C(=O)N1CCC[C@H]1C(=O)N[C@H](C(=O)N[C@H](C(=O)N[C@H](C(=O)N[C@@H](CC(=O)O)C(=O)N[C@@H](CC(C)C)C(=O)N[C@H](C(=O)N[C@@H](Cc1c[nH]cn1)C(=O)N[C@@H](CC(N)=O)C(=O)N[C@@H](CC(=O)O)C(=O)N[C@@H](CO)C(=O)O)[C@@H](C)O)C(C)C)C(C)C)C(C)C)[C@@H](C)O)C(C)C [RNF4-SIM2/3pep] (H-GDEIVDLTCESLEPVVVDLTHNDS-OH; N-terminus and C-terminus assumed)	very similar to the one of the whole RNF4-SIM domain for di-SUMO2	
CC[C@H](C)[C@H](NC(=O)[C@@H](NC(=O)[C@H](CCC(=O)O)NC(=O)[C@H](CO)NC(=O)[C@H](CO)NC(=O)[C@H](CO)NC(=O)[C@H](CO)NC(=O)[C@H](CC(=O)O)NC(=O)[C@@H](NC(=O)[C@@H](NC(=O)[C@H](CC(C)C)NC(=O)[C@H](CC(=O)O)NC(=O)[C@@H](NC(=O)[C@@H](NC(=O)[C@H](CCC(=O)O)NC(=O)[C@@H](NC(=O)[C@H](CCCCN)NC(=O)[C@@H](N)CCCCN)C(C)C)C(C)C)[C@@H](C)CC)[C@@H](C)O)[C@@H](C)CC)C(C)C)C(=O)N[C@@H](CC(=O)O)C(=O)N[C@@H](CC(C)C)C(=O)N[C@H](C(=O)N[C@H](C(=O)N[C@@H](CC(=O)O)C(=O)N[C@@H](CO)C(=O)N[C@@H](CO)C(=O)O)[C@@H](C)CC)[C@@H](C)O [2xPIAS1pep, reference compound] (H-KKVEVIDLTIDSSSSEVIDLTIDSS-OH; N-terminus and C-terminus assumed)	exceeded the affinities of the RNF4-SIM2/3 peptide	
CC[C@H](C)[C@H](NC(=O)[C@@H](NC(=O)[C@H](CCC(=O)O)NC(=O)[C@@H](NC(=O)[C@H](CCCCN)NC(=O)[C@@H](N)CCCCN)C(C)C)C(C)C)C(=O)N[C@@H](CC(=O)O)C(=O)N[C@@H](CC(C)C)C(=O)N[C@H](C(=O)N[C@H](C(=O)N[C@@H](CC(=O)O)C(=O)N[C@@H](CO)C(=O)N[C@@H](CO)C(=O)N[C@@H](CO)C(=O)N[C@@H](CC(=O)O)C(=O)N[C@@H](CCC(=O)O)C(=O)O)[C@@H](C)CC)[C@@H](C)O [PIAS1pep] (H-KKVEVIDLTIDSSSDE-OH; N-terminus and C-terminus assumed)		much stronger than the binding of any RNF4-derived tandem SIM peptide

From article PMC3901395, “Multivalent interactions of the SUMO-interaction motifs in RING finger protein 4 determine the specificity for chains of the SUMO” (Biochemical Journal, 2013)
